The test system of one test is MCF-7 cells. Put plainly: Breast Cancer Cell Viability Assay (MCF-7, CellTiter-Glo). It counts as cell-based. The settings on record: 5 days' compound exposure; for IC50: Homo sapiens, MCF7, 120 h. The method in brief: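 MCF-7 cells, 320 per well in RPMI with 10% FBS and 20 mM HEPES, adhered overnight, then exposed 5 days to an eleven-point semilog dilution (final 0.3-0.000003 μM). CellTiter-Glo luminescence read; % viability = (sample − cell-free background)/(untreated − background) × 100.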
(In general: Cellular ATP, detected with luciferase, serves as a proxy for viable cell number.)

In another test the target is T1, ER-α (Homo sapiens, UniProt P03372).
T1 sequence (P03372 1-595): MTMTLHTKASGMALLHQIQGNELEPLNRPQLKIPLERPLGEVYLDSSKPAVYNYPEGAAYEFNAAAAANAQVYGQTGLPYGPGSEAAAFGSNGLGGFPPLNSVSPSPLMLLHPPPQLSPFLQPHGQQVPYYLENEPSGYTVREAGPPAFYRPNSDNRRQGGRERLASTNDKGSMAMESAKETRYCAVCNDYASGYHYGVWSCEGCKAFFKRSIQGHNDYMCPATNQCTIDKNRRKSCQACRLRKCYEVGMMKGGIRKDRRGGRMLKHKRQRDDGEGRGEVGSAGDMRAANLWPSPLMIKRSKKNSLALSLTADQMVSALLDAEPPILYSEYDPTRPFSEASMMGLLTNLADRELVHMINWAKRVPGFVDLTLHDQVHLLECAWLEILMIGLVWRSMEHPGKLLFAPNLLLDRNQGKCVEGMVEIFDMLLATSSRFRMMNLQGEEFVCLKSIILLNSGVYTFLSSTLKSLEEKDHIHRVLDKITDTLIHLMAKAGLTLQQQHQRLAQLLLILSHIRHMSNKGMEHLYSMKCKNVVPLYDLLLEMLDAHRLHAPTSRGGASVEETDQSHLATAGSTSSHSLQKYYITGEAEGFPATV
Description: Breast Cancer Cell ER-α In Cell Western Assay (SP1). It counts as cell-based. The settings on record: MCF-7 cells, SP1 antibody, 4 or 24 hr post compound addition; for Emax: MCF7, read-out: ER-α In Cell Western Assay (SP1) Max Response; for DC50: read-out: ER-α In Cell Western Assay (SP1) IC50. The method in brief:
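ER-α protein levels measured by in-cell western with SP1 antibody, ratioed to DRAQ5 DNA signal and given as percent of untreated controls. Compounds added at 0.3–0.000003 μM final (eleven semilog points) to adherent MCF-7 cells in stripped serum; exposure 4 or 24 h before fixation.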

Bounds are passed on as bounds.

What is called IC50 is the point on the concentration scale where inhibition reaches its midpoint. A low value points to greater potency in that assay.

With `CC/C(=C(/c1ccc(/C=C/C(=O)O)cc1)c1ccc2[nH]ncc2c1)c1ccc(OC)cc1C` [Compound 128, (E)-3-(4-((E)-1-(1H-Indazol-5-yl)-2-(4-methoxy-2-methylphenyl)but-1-en-1-yl)phenyl)acrylic acid], in the test with MCF-7 cells, the “MCF7 Viability Assay Max Response” value was “++ (++ = a single % value ≧ 40%)” and the IC50 is ≤ 0.1 µM. In addition, at ER-α, the Emax was ≥ 40% and the DC50 is ≤ 0.1 µM.
For the compound `CC/C(=C(/c1ccc(/C=C/C(=O)O)cc1)c1ccc2[nH]ncc2c1)c1ccc(OC)cc1F` [Compound 129, (E)-3-(4-((E)-2-(2-Fluoro-4-methoxyphenyl)-1-(1H-indazol-5-yl)but-1-en-1-yl)phenyl)acrylic acid], in the test on MCF-7 cells, the “MCF7 Viability Assay Max Response” value was “++ (++ = a single % value ≧ 40%)” and the IC50 was ≤ 0.1 µM. For the same compound, on ER-α, the Emax was ≥ 40% and the DC50 was ≤ 0.1 µM.
With `CC/C(=C(/c1ccc(/C=C/C(=O)O)cc1)c1ccc2[nH]ncc2c1)c1cc(OC)ccc1Cl` [Compound 130, (E)-3-(4-((E)-2-(2-Chloro-5-methoxyphenyl)-1-(1H-indazol-5-yl)but-1-en-1-yl)phenyl)acrylic acid], in the test with MCF-7 cells, the “MCF7 Viability Assay Max Response” value was “++ (++ = a single % value ≧ 40%)” and the IC50 was ≤ 0.1 µM. Further, at ER-α, the Emax was ≥ 40% and the DC50 was ≤ 0.1 µM.
As to `CC/C(=C(/c1ccc(/C=C/C(=O)O)cc1)c1ccc2[nH]ncc2c1)c1ccc(S(C)(=O)=O)cc1F` [Compound 131, (E)-3-(4-((E)-2-(2-Fluoro-4-(methylsulfonyl)phenyl)-1-(1H-indazol-5-yl)but-1-en-1-yl)phenyl)acrylic acid], in the test on MCF-7 cells, the “MCF7 Viability Assay Max Response” value was “++ (++ = a single % value ≧ 40%)” and the IC50 is > 0.1 µM. In addition, at ER-α, the Emax is ≥ 40% and the DC50 is > 0.1 µM.
As to `[2H]C([2H])([2H])C([2H])([2H])/C(=C(/c1ccc(/C=C/C(=O)O)cc1)c1ccc2[nH]ncc2c1)c1ccc(Cl)cc1Cl` [Compound 132, (E)-3-(4-((E)-2-(2,4-Dichlorophenyl)-3,3,4,4,4-pentadeutero-1-(1H-indazol-5-yl)but-1-en-1-yl)phenyl)acrylic acid], in the test with MCF-7 cells, the “MCF7 Viability Assay Max Response” value is “++ (++ = a single % value ≧ 40%)” and the IC50 is ≤ 0.1 µM. In addition, at ER-α, the Emax was ≥ 40% and the DC50 is ≤ 0.1 µM.
As to `CC/C(=C(/c1ccc(/C=C/C(=O)O)cc1)c1ccc2[nH]ncc2c1)c1cccc(S(C)(=O)=O)c1` [Compound 133, (E)-3-(4-((E)-1-(1H-Indazol-5-yl)-2-(3-(methylsulfonyl)phenyl)but-1-en-1-yl)phenyl)acrylic acid], in the test on MCF-7 cells, the “MCF7 Viability Assay Max Response” value is reported as “+ (+ = a single % value < 40%)” and the IC50 was > 0.1 µM. Further, at ER-α, the Emax is ≥ 40% and the DC50 was > 0.1 µM.
For `CC/C(=C(/c1ccc(/C=C/C(=O)O)cc1)c1cc(F)c2[nH]ncc2c1)c1ccc(Cl)cc1Cl` [Compound 134, (E)-3-(4-((E)-2-(2,4-Dichlorophenyl)-1-(7-fluoro-1H-indazol-5-yl)but-1-en-1-yl)phenyl)acrylic acid], in the test on MCF-7 cells, the “MCF7 Viability Assay Max Response” value was “++ (++ = a single % value ≧ 40%)” and the IC50 was ≤ 0.1 µM. At ER-α, the Emax is ≥ 40% and the DC50 is ≤ 0.1 µM.
Turning to `CC/C(=C(/c1ccc(/C=C/C(=O)O)cc1)c1ccc2[nH]ncc2c1)c1cccc(OC)c1Cl` [Compound 135, (E)-3-(4-((E)-2-(2-Chloro-3-methoxyphenyl)-1-(1H-indazol-5-yl)but-1-en-1-yl)phenyl)acrylic acid], in the test on MCF-7 cells, the “MCF7 Viability Assay Max Response” value is given as “++ (++ = a single % value ≧ 40%)” and the IC50 was ≤ 0.1 µM. In addition, at ER-α, the Emax is ≥ 40% and the DC50 was ≤ 0.1 µM.
For `CC/C(=C(/c1ccc(/C=C/C(=O)O)cc1)c1ccc2[nH]ncc2c1)c1ccc(Cl)cc1C#N` [Compound 137, (E)-3-(4-((E)-2-(4-Chloro-2-cyanophenyl)-1-(1H-indazol-5-yl)but-1-en-1-yl)phenyl)acrylic acid], in the test on MCF-7 cells, the “MCF7 Viability Assay Max Response” value is “++ (++ = a single % value ≧ 40%)” and the IC50 was ≤ 0.1 µM. Besides, at ER-α, the Emax is ≥ 40% and the DC50 is ≤ 0.1 µM.
Take `CC/C(=C(/c1ccc(/C=C/C(=O)O)cc1)c1ccc2[nH]ncc2c1)c1ccc(F)cc1C#N` [Compound 138, (E)-3-(4-((E)-2-(2-Cyano-4-fluorophenyl)-1-(1H-indazol-5-yl)but-1-en-1-yl)phenyl)acrylic acid]: in the test with MCF-7 cells, the “MCF7 Viability Assay Max Response” value is “++ (++ = a single % value ≧ 40%)” and the IC50 is ≤ 0.1 µM. Moreover, on ER-α, the Emax was ≥ 40% and the DC50 was ≤ 0.1 µM.
As to `CC/C(=C(/c1ccc(/C=C/C(=O)O)cc1)c1ccc2[nH]ncc2c1)c1ccc(C(F)(F)F)cc1C#N` [Compound 139, (E)-3-(4-((E)-2-(2-Cyano-4-(trifluoromethyl)phenyl)-1-(1H-indazol-5-yl)but-1-en-1-yl)phenyl)acrylic acid], in the test with MCF-7 cells, the “MCF7 Viability Assay Max Response” value is on record as “++ (++ = a single % value ≧ 40%)” and the IC50 was ≤ 0.1 µM. For the same compound, on ER-α, the Emax is ≥ 40% and the DC50 is ≤ 0.1 µM.
Consider `CC/C(=C(/c1ccc(/C=C/C(=O)O)cc1)c1ccc2[nH]ncc2c1)c1ccc(C#N)cc1Cl` [Compound 140, (E)-3-(4-((E)-2-(2-Chloro-4-cyanophenyl)-1-(1H-indazol-5-yl)but-1-en-1-yl)phenyl)acrylic acid], for which, in the test on MCF-7 cells, the “MCF7 Viability Assay Max Response” value is on record as “++ (++ = a single % value ≧ 40%)” and the concentration for half-maximal inhibition (IC50) was ≤ 0.1 µM. Further, the Emax at ER-α is ≥ 40%.
As for `CC/C(=C(/c1ccc(/C=C/C(=O)O)cc1)c1ccc2[nH]ncc2c1)c1cccc(C#N)c1C` [Compound 141, (E)-3-(4-((E)-2-(3-Cyano-2-methylphenyl)-1-(1H-indazol-5-yl)but-1-en-1-yl)phenyl)acrylic acid], in the test with MCF-7 cells, the “MCF7 Viability Assay Max Response” value is recorded as “++ (++ = a single % value ≧ 40%)” and the IC50 is > 0.1 µM. Moreover, on ER-α, the Emax was ≥ 40% and the DC50 was ≤ 0.1 µM.
For `CC/C(=C(/c1ccc(/C=C/C(=O)O)cc1)c1ccc2[nH]ncc2c1)c1ccc(C#N)cc1C` [Compound 142, (E)-3-(4-((E)-2-(4-Cyano-2-methylphenyl)-1-(1H-indazol-5-yl)but-1-en-1-yl)phenyl)acrylic acid], in the test with MCF-7 cells, the “MCF7 Viability Assay Max Response” value was “++ (++ = a single % value ≧ 40%)” and the IC50 is ≤ 0.1 µM. Also, at ER-α, the Emax was ≥ 40%.
Take `CC/C(=C(/c1ccc(/C=C/C(=O)O)cc1)c1ccc2[nH]ncc2c1)c1cc(C#N)ccc1C` [Compound 143, (E)-3-(4-((E)-2-(5-Cyano-2-methylphenyl)-1-(1H-indazol-5-yl)but-1-en-1-yl)phenyl)acrylic acid]: in the test on MCF-7 cells, the “MCF7 Viability Assay Max Response” value is “++ (++ = a single % value ≧ 40%)” and the IC50 was > 0.1 µM. In addition, at ER-α, the Emax is ≥ 40% and the DC50 was ≤ 0.1 µM.
The like results for `CC/C(=C(/c1ccc(/C=C/C(=O)O)cc1)c1ccc2[nH]ncc2c1)c1ccc(OC)cc1C#N` [Compound 144, (E)-3-(4-((E)-2-(2-Cyano-4-methoxyphenyl)-1-(1H-indazol-5-yl)but-1-en-1-yl)phenyl)acrylic acid] were, in that order, “++ (++ = a single % value ≧ 40%)”, ≤ 0.1 µM, ≥ 40% and ≤ 0.1 µM.
On the same counts, the results for `CC/C(=C(/c1ccc(/C=C/C(=O)O)cc1)c1ccc2c(cnn2C)c1)c1ccccc1Cl` [Compound 145, (E)-3-(4-((E)-2-(2-Chlorophenyl)-1-(1-methyl-1H-indazol-5-yl)but-1-en-1-yl)phenyl)acrylic acid] are “++ (++ = a single % value ≧ 40%)”, ≤ 0.1 µM, ≥ 40% and ≤ 0.1 µM.
The like results for `Cn1ncc2cc(/C(=C(/c3ccccc3)C3CCC3)c3ccc(/C=C/C(=O)O)cc3)ccc21` [Compound 146, (E)-3-(4-((E)-2-Cyclobutyl-1-(1-methyl-1H-indazol-5-yl)-2-phenylvinyl)phenyl)acrylic acid] were, in that order, “++ (++ = a single % value ≧ 40%)”, ≤ 0.1 µM, ≥ 40% and ≤ 0.1 µM.
For the compound `CC/C(=C(/c1ccc(/C=C/C(=O)O)cc1)c1ccc2c(cnn2C)c1)c1ccc(F)cc1Cl` [Compound 147, (E)-3-(4-((E)-2-(2-Chloro-4-fluorophenyl)-1-(1-methyl-1H-indazol-5-yl)but-1-en-1-yl)phenyl)acrylic acid], in the test with MCF-7 cells, the “MCF7 Viability Assay Max Response” value is recorded as “++ (++ = a single % value ≧ 40%)” and the IC50 was ≤ 0.1 µM. For the same compound, at ER-α, the Emax is ≥ 40% and the DC50 is ≤ 0.1 µM.

Values taken from patent US8455534B2, “Estrogen receptor modulators and uses thereof” (Aragon Pharmaceuticals, Inc., priority 2010, dated 2013).
